Data set [1] deals with BTZ-resistant MM1.S cells. The data set is described as follows: Cell viability assay, BTZ-resistant MM1.S. The format is cell-based, human. The method, then:
Cells and reagents: MM1.S-luc-BTZ (BTZ®)-resistant cell line was made in our laboratory. Starting with 1 nM concentration, MM1.S-luc cells were treated with BTZ and exposed continuously for 5 days and removed for 2 days before re-exposure to the drug until the growth of the cells mimicked the parental cell line. Incremental increase of the drug was applied until the concentration of 8 nM was reached. […] BTZ was procured from Millennium Pharmaceuticals Inc. All cell lines that are used in this study and their detailed information are shown in table 1 below.
Cell viability assay: Cell viability was measured in 96 well culture plates (2×10^4 cells/well) using CellTiter-Glo® Luminescent Cell Viability Assay (Promega, Madison, WI, USA) according to the manufacturer's protocol.

The test system of data set [2] is MM1.S-luc. The data set is described as follows: Chou and Talalay drug combination test with BTZ. As to conditions: combined with BTZ; lower dose range affecting 70% of myeloma cells or less. The class given is cell-based, human. Here is the method:
Cell vi-ability and LD50 for inhibitors were measured in 96 well culture plates (2×10^4 cells/well) after 72 h of treatment using CellTiter-Glo® Luminescent Cell Viability Assay (Promega, Madison, WI, USA). (A) Cell survival assay with MM1.S.luc and BTZ-resistant MM1.S.luc cells. […] (C) Comparison of PDIA1 protein levels in MM1.S.luc and MM1.S.luc BTZ-resistant cells. Band intensity was calculated with Image Lab Version 5.2.1. (D) Cell survival assay with 5TGM1.luc and (E) BTZ-resistant 5TGM1.luc cells. (F) MM1.S cell line was exposed to CCF642-34, and BTZ for 72 h for synergistic drug combination test according to Chou and Talalay method. If the […] remained less than 1, the two drugs were determined as synergistic. […] The number of colony-forming units were plotted for each treatment.

In data set [3] the test system is MM1.S cells. Kind of data set: ER stress response and apoptosis markers by immunoblotting. The class given is cell-based, human. The settings on record: 3 μM, 4 h. Here is the method:
FIGS. 6A-6C provide graphs and images showing PDIA1 inhibition by CCF642 analogues induce acute endoplasmic reticulum (ER) stress response and lead to apoptosis. Multiple myeloma cells (MM1.S) were treated with 3 μM of CCF642, -34, -37, -39, -34-A, and Tunicamycin (as a control). The status of ER sensors (XBP-1S, IRE1α oligomerization, and induction of C/EBP homology protein (CHOP)) along with apoptosis markers (cleaved caspase 3 and PARP1) were monitored. (A) MM1.S cells were treated for 4 h with CCF642 and its indicated analogues. (B) MM1.S cells were treated with CCF642-34 in a time course. (C) MM1.S, MM1.S.luc, and BTZ-resistant MM1.S.luc cells were stained with the H2DCFDA ROS detection and then treated with 2.5 μM CCF642-34 up to 4 h.
Immunoblotting: Immunoblotting was performed as described previously (Dallas et al., Blood, 93, 1697-1706 (1999)) using primary antibodies against PDIA1 (Cat #3501), XBP1-S (Cat #12782); IRE1α (Cat #3294), C/EBP homologous protein (CHOP) (Cat #5554), Caspase-3 (Cat #9665), PARP1 (Cat #9542), and GAPDH (Cat #3683) purchased from Cell Signaling Technology, Inc. (Danvers, MA, USA) and used at 1:1000 dilution, unless mentioned otherwise.

A short description of data set [4]: Stability in acidic conditions (6 N HCl). The format is physicochemical. The settings on record: 3 h. The method, then:
To evaluate pharmacological properties of CCF642-34, the stability in acidic conditions (6 N HCl) and upon exposure to human liver microsomes was tested. […] It was therefore concluded that CCF642-34 may be orally bioavailable and effective against MM in vivo.

Data set [5] deals with 5TGM1-luc myeloma cells. The data set is described as follows: 5TGM1-luc/C57BL/KaLwRij syngeneic mouse model of myeloma. The class given is in vivo. The method, then:
FIGS. 8A & 8B provide graphs showing the stability of CCF642-34 and restriction of multiple myeloma in a syngeneic mouse model by PDIA1-inhibitor CCF642-34. (A) The stability of CCF642-34 was measured against oxidative metabolism by human liver microsomes. CCF642-34 (20 μM) was incubated with 0.25 mg/mL of human liver microsomes for 5 h. The residual compound at indicated time points was measured by HPLC (Agilent 1260 Infinity II) interfaced with reverse phase C18 column using 280 nm and 245 nm detection wavelength. The standard curve of known concentrations of CCF642-34 was obtained from the area under the peak at two wavelengths, and the remaining CCF642-34 was estimated. Data are representative of two independent experiments. (B) 5TGM1-luc/C57BL/KaLwRij mouse models of myeloma (3 males, 3 females per treatment group) were engrafted with 2×10^6 5TGM1-luc cells via tail vein injection and treated 3 times a week for 8 weeks per oral gavage with 20 mg/kg of CCF642-34 dissolved in 10% 2-hydroxy-propyl-o-cyclodextrin. The survival of each group was monitored, and Kaplan-Meier survival analysis was performed. All control animals required euthanasia before 52 days (due to paraparesis, weight loss, poor general condition), while 3 out of 6 mice treated with CCF642-34 lived beyond 6 months with no sign of disease.
Mouse experiment: Animal care and procedures were conducted in accordance with institutional guidelines approved by the Institutional Animal Care and Use Committee (IACUC). […]
To evaluate whether CCF642-34 achieved anti-myeloma efficacy after oral administration in vivo we used the 5TGM1-luc/C57BL/KaLwRij syngeneic mouse model. […] Mouse weight was monitored along with systemic symptoms of distress or disease. […] The intensity of luminescence was not good enough for the detection of bioluminescence, which is a common issue in the imaging of B57 black 6 mice. Therefore, the inventors primarily monitored the survival, and the disease burden was determined in the bone marrow cells at the time of sacrifice of a moribund mice. […]

[6] abbreviates: 20 mg/kg oral gavage 3 times a week for 8 weeks.

One compound from patent publication US12649734B2, “Bioavailable protein disulfide isomerase inhibitors” (THE CLEVELAND CLINIC FOUNDATION, priority 2020, dated 2026) can be followed below.

Take `NC(CC1CNc2ccccc21)C(=O)NCCCOc1ccc(N2C(=O)/C(=C/c3ccc([N+](=O)[O-])s3)SC2=S)cc1` (stereo not shown) [CCF642-34]: the “sensitivity of BTZ-resistant MM1.S compared to parental BTZ-naive MM1.S” value in data set [1] is about 2 fold. Moreover, the “combination index (CI)” value in data set [2] is listed as “below 1”. Also, in data set [3], the “ER stress response (induction of XBP-1S and CHOP)” value was “induced a robust ER stress response”. The “compound recovered after exposure to acid” value in data set [4] was “greater than 80%”. Further, in data set [5] (setting [6]), the “mice living beyond 6 months with no sign of disease” value was 3 out of 6 and the “mice living beyond 180 days with no sign of disease” value is given as 3 out of 6. Also, the “adverse events as assessed by weight and animal behavior” value in data set [5] (oral treatment, 8 weeks) is reported as “no obvious adverse events”.
